Measurements: patent US12564194B2, “Herbicide mixture, herbicidal composition, method and kit for controlling undesired vegetation” (Adama Agan Ltd., priority 2020, dated 2026)

Legend:
Type in all cases: in vivo
Lolium multiflorum Lamk = test: Soil sealing treatment pot experiment for controlling Lolium multiflorum Lamk (Example 2); conditions: 35 days
Aegilops tauschii [1] = test: Soil sealing treatment pot experiment for controlling Aegilops tauschii (Example 1)
From the text: (§1) Referring to an article of Colby, S. R. i.e., Calculation of the synergistic and antagonistic response of herbicide combinations. Weeds 1967, 15, pp. 20-22 (which is incorporated herein in its entirety by reference), the theoretical value E0 of a given mixture of three active ingredients may be predicted according to the following equation, then evaluating whether there is synergy.
(§2) [formula] • wherein: • E0 is the theoretical fresh weight survival rate for the mixture of pyroxasulfone, chlorotoluron and […]; • X is the measured fresh weight survival rate for pyroxasulfone used alone in the same dosage as that in the mixture; • Y is the measured fresh weight survival rate for chlorotoluron used alone in the same dosage as that in the mixture; • Z is the measured fresh weight survival rate for mesosulfuron-methyl used alone in the same dosage as that in the mixture. • E is the measured fresh weight survival rate for the mixture of pyroxasulfone, chlorotoluron and mesosulfuron-methyl. • E0-E value is calculated to evaluate the combined effect of pyroxasulfone, chlorotoluron and mesosulfuron-methyl on the selected weeds.
(§3) In this example, the herbicidal activity of a mixture of pyroxasulfone, chlorotoluron and mesosulfuron-methyl for soil sealing treatment to control Aegilops tauschii is investigated by a pot experiment method under the conditions of a glass greenhouse. This example is carried out in accordance with “NY/T 1155.4-2006 Guidelines for Indoor Bioassay Tests of Pesticides, Herbicides Part 4: Activity Determination Tests, Stem and Leaf Spray Method”.
(§4) • Pyroxasulfone: pyroxasulfone (850 g/Kg, WG) from Adama Agan LTD. • Chlorotoluron: chlorotoluron (90 wt %, WG) from Adama Agan LTD. • Mesosulfuron-methyl: Sigma (30 g/L, OD) from Bayer AG. • Test location: Greenhouse of Institute of Plant Protection, Shandong Academy of Agricultural Sciences • Cultivation of test materials: The test soil is formed by mixing the 20 cm layer loam on the ground surface and the culture medium in a ratio of 3:1 as cultivation soil.
(§5) The test weeds are cultivated in a glass greenhouse at a temperature of 15-30° C. and natural light. A certain amount of Aegilops tauschil seeds are sown in a plastic pot with a diameter of 9 cm, covering with 1-2 mm soil, and putting them in an enamel dish filled with water. The bottom infiltration method is used to water them, waiting for the water to seep to the soil surface, and then transferring to a glass greenhouse for cultivation. The agents are applied on the second day after sowing Aegilops tauschii seeds.
(§6) For each active ingredient, the multiple dilution method is used to obtain the other five lower dosages from the highest dosage. A certain amount of agent is measured by pipette or balance, adding it directly to the water, and then diluting it to the required dosage by the multiple dilution method.
(§7) Spraying treatment: ASS-4 automatic control spraying system with a fan-shaped nozzle is used indoors to spray agent, the running speed is adjusted based on nozzle pressure, flow rate, etc. to spray 50 mL of chemical solution on the actual spray area of 1.1 m^2 (equivalent to 30 liters per mu), arranging the plastic pots to be processed on the spraying table evenly, and spraying evenly. The spraying pressure is 0.35 MPa, and the flow rate of the fan-shaped nozzle is 800 mL/min, spraying in order from low dosage to high dosage. Each treatment is repeated 3 times. After spraying, let it dry for one day, placing it in a glass greenhouse, and watering it regularly to keep moist.
Application time and frequency: the experiment is conducted on the second day after sowing Aegilops tauschii seeds, and the soil is evenly sprayed. The application time is Mar. 10, 2020, with one application.
Weed investigation method and time: after applying the agent, the symptoms of weed damage (such as growth inhibition, chlorosis, deformity, etc.) are recorded in detail. […]

Aegilops tauschii [2] = test: Soil sealing treatment pot experiment for controlling Aegilops tauschii, more mixing ratios (Example 3)
From the text: as §1, §2, §3, §4, §5, §6, §7
Weed investigation method and time: after applying the agent, the symptoms of weed damage (such as growth inhibition, chlorosis, deformity, etc.) are recorded in detail. After 35 days, the fresh weight of aerial part of the weeds in each treatment is weighed, and the measured fresh weight inhibition rate and the measured fresh weight survival rate for each treatment are calculated according to the following equations: […]

With `Cc1ccc(NC(=O)N(C)C)cc1Cl` [chlorotoluron, 3-(3-chloro-4-methylphenyl)-N,N-dimethylurea] the “Measured fresh weight survival rate (%) - E” value (Lolium multiflorum Lamk; 70.3125 gai/ha) was 96.7%, the “Measured fresh weight survival rate (%) - E” value (Lolium multiflorum Lamk; 140.625 gai/ha) was 91.21% and the “Measured fresh weight survival rate (%) - E” value (Lolium multiflorum Lamk; 281.25 gai/ha) was 87.91%. For the same compound, the “Measured fresh weight survival rate (%) - E” value (Lolium multiflorum Lamk; 562.5 gai/ha) was 83.52%, the “Measured fresh weight survival rate (%) - E” value (Lolium multiflorum Lamk; 1125 gai/ha) was 25.27% and the “Measured fresh weight survival rate (%) - E” value (Lolium multiflorum Lamk; 2250 gai/ha) was 0%. The inhibition at 70.3125 g/ha (Lolium multiflorum Lamk; Lolium multiflorum, soil, 840 h, 70.3125 gai/ha, read-out: Measured fresh weight inhibition rate (%)) was 3.3%, the inhibition at 140.625 g/ha (Lolium multiflorum Lamk; Lolium multiflorum, soil, 840 h, 140.625 gai/ha, read-out: Measured fresh weight inhibition rate (%)) was 8.79% and the inhibition at 281.25 g/ha (Lolium multiflorum Lamk; Lolium multiflorum, soil, 840 h, 281.25 gai/ha, read-out: Measured fresh weight inhibition rate (%)) was 12.1%. For the same compound, the inhibition at 562.5 g/ha (Lolium multiflorum Lamk; Lolium multiflorum, soil, 840 h, 562.5 gai/ha, read-out: Measured fresh weight inhibition rate (%)) was 16.5%, the inhibition at 1125 g/ha (Lolium multiflorum Lamk; Lolium multiflorum, soil, 840 h, 1125 gai/ha, read-out: Measured fresh weight inhibition rate (%)) was 74.7% and the inhibition at 2250 g/ha (Lolium multiflorum Lamk; Lolium multiflorum, soil, 840 h, 2250 gai/ha, read-out: Measured fresh weight inhibition rate (%)) was 100%. The “Measured fresh weight survival rate (%) - E” value (Aegilops tauschii [1]; 70.3125 gai/ha, 35 days) was 102.6%, the “Measured fresh weight survival rate (%) - E” value (Aegilops tauschii [1]; 140.625 gai/ha, 35 days) was 101.3% and the “Measured fresh weight survival rate (%) - E” value (Aegilops tauschii [1]; 281.25 gai/ha, 35 days) was 92.21%. The “Measured fresh weight survival rate (%) - E” value (Aegilops tauschii [1]; 562.5 gai/ha, 35 days) was 81.82%, the “Measured fresh weight survival rate (%) - E” value (Aegilops tauschii [1]; 1125 gai/ha, 35 days) was 72.73% and the “Measured fresh weight survival rate (%) - E” value (Aegilops tauschii [1]; 2250 gai/ha, 35 days) was 36.36%. The inhibition at 70.3125 g/ha (Aegilops tauschii [1]; Aegilops tauschii, soil, 840 h, 70.3125 gai/ha, 35 days, read-out: Measured fresh weight inhibition rate (%)) was -2.6%, the inhibition at 140.625 g/ha (Aegilops tauschii [1]; Aegilops tauschii, soil, 840 h, 140.625 gai/ha, 35 days, read-out: Measured fresh weight inhibition rate (%)) was -1.3% and the inhibition at 281.25 g/ha (Aegilops tauschii [1]; Aegilops tauschii, soil, 840 h, 281.25 gai/ha, 35 days, read-out: Measured fresh weight inhibition rate (%)) was 7.79%. The inhibition at 562.5 g/ha (Aegilops tauschii [1]; Aegilops tauschii, soil, 840 h, 562.5 gai/ha, 35 days, read-out: Measured fresh weight inhibition rate (%)) was 18.2%, the inhibition at 1125 g/ha (Aegilops tauschii [1]; Aegilops tauschii, soil, 840 h, 1125 gai/ha, 35 days, read-out: Measured fresh weight inhibition rate (%)) was 27.3% and the inhibition at 2250 g/ha (Aegilops tauschii [1]; Aegilops tauschii, soil, 840 h, 2250 gai/ha, 35 days, read-out: Measured fresh weight inhibition rate (%)) was 63.6%. For the same compound, the “control effect on Aegilops tauschii” value (Aegilops tauschii [1]; single active ingredient, summary of Table 2) was “certain effect”, the “Actual fresh weight survival rate (%) - E” value (Aegilops tauschii [2]; 562.5 gai/ha) was 80.2% and the “Actual fresh weight survival rate (%) - E” value (Aegilops tauschii [2]; 1125 gai/ha) was 72.4%. The “Actual fresh weight survival rate (%) - E” value (Aegilops tauschii [2]; 2250 gai/ha) was 52.6%, the inhibition at 562.5 g/ha (Aegilops tauschii [2]; Aegilops tauschii, soil, 562.5 gai/ha, read-out: Actual fresh weight inhibition rate %) was 19.8% and the inhibition at 1125 g/ha (Aegilops tauschii [2]; Aegilops tauschii, soil, 1125 gai/ha, read-out: Actual fresh weight inhibition rate %) was 27.6%. For the same compound, the inhibition at 2250 g/ha (Aegilops tauschii [2]; Aegilops tauschii, soil, 2250 gai/ha, read-out: Actual fresh weight inhibition rate %) was 47.4%.
